The target of test [1] is T1, PrS-SpeMreB1 (Spiroplasma eriocheiris, UniProt A0A0H3XI00).
T1 construct: gene mreB1; full-length SpeMreB1; N-terminal 6xHis, two ProteinS (M. xanthus) solubilization tags, factor Xa site; C-terminal 6xHis; tags kept; 560 residues with tags; E. coli BL21(DE3), codon-optimized; monomeric gel filtration fraction
T1 sequence (A0A0H3XI00 1-346): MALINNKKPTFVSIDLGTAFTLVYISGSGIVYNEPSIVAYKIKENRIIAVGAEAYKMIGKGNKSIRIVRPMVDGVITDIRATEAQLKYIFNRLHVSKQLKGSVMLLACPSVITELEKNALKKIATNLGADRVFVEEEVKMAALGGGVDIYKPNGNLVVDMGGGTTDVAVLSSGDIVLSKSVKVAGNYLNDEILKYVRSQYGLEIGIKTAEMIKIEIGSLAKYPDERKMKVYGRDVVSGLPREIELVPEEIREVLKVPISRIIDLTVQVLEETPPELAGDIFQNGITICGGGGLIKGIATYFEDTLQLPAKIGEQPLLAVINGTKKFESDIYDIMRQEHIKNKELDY
The test can be described thus: sedimentation assay of polymerization. It is filed as biochemical. As to conditions: 2 mM ADP, 1 M NaCl, 2 mM MgCl2, pH 8.0, room temperature; polymerizes with nucleotide, not nucleotide-free.

In test [2] the target is T2, SpeMreB5 (Spiroplasma eriocheiris, UniProt A0A0H3XIQ3).
T2 construct: gene mreB5; full-length SpeMreB5, 6xHis tag, pCold-15b, E. coli BL21(DE3), codon-optimized
T2 sequence (A0A0H3XIQ3 1-350): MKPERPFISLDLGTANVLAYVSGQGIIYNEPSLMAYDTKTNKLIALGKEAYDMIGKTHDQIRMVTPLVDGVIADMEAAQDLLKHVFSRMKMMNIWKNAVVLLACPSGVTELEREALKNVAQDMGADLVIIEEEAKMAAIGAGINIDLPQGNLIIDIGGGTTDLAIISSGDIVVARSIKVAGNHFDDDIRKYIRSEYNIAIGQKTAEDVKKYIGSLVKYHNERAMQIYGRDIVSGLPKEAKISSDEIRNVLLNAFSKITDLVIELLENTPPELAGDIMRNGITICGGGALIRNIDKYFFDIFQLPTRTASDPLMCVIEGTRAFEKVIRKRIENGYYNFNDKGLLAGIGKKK
As to the kind of experiment: liposome cosedimentation (loss of membrane binding with nucleotide). As to conditions: 1 mM nucleotide, SpiroLipid liposomes, 200 mM KCl, 1 mM MgCl2, pH 7.5.

The target of test [3] is PrS-SpeMreB1 T164A (Spiroplasma eriocheiris). As to the kind of experiment: sedimentation assay (ultracentrifugation); buffer S (20 mM Tris-HCl pH 8.0, 1 M NaCl, 200 mM L-arginine-HCl, 5 mM DTT, 2 mM MgCl2) with 2 mM ATP; 3 h at room temperature; 100,000 rpm, 23 °C, 90 min; critical concentration as x-intercept of the linear fit.
Test [4] has as its target PrS-SpeMreB1 WT (monomeric gel-filtration fraction) (Spiroplasma eriocheiris). The test can be described thus: sedimentation assay (ultracentrifugation); buffer S with 2 mM ADP; 3 h at room temperature; 100,000 rpm, 23 °C, 90 min; critical concentration as x-intercept of the linear fit.
Test [5] has the same target. As to the kind of experiment: sedimentation assay (ultracentrifugation); buffer S (20 mM Tris-HCl pH 8.0, 1 M NaCl, 200 mM L-arginine-HCl, 5 mM DTT, 2 mM MgCl2) with 2 mM ATP; 3 h at room temperature; 100,000 rpm, 23 °C, 90 min; critical concentration as x-intercept of the linear fit.
Test [6] shares this target. The test can be described thus: sedimentation assay (ultracentrifugation); buffer S with 2 mM AMPPNP; 3 h at room temperature; 100,000 rpm, 23 °C, 90 min; no linear fit possible (small pellet amounts).

Take `Nc1ncnc2c1ncn2[C@@H]1O[C@H](COP(=O)(O)OP(=O)(O)O)[C@@H](O)[C@H]1O` [ADP]: in test [1], the “sedimentation assay of polymerization” value is “PrS-SpeMreB1 was less polymerized in the presence of ADP”. For the same compound, the “liposome cosedimentation (loss of membrane binding with nucleotide)” value in test [2] is listed as “SpeMreB5 did not bind to the liposomes in the presence of nucleotides”.
For the compound `Nc1ncnc2c1ncn2[C@@H]1O[C@H](COP(=O)(O)OP(=O)(O)NP(=O)(O)O)[C@@H](O)[C@H]1O` [AMPPNP], in test [2], the “liposome cosedimentation (loss of membrane binding with nucleotide)” value is listed as “SpeMreB5 did not bind to the liposomes in the presence of nucleotides”.
Still for that read-out and setting: then `Nc1ncnc2c1ncn2[C@@H]1O[C@H](COP(=O)(O)OP(=O)(O)OP(=O)(O)O)[C@@H](O)[C@H]1O` [ATP], with “SpeMreB5 did not bind to the liposomes in the presence of nucleotides”.
In the case of PrS-SpeMreB1 T164A (natural protein), in test [3], the critical concentration (CC) for polymerization amounted to 3 µM.
Take “PrS-SpeMreB1 WT (monomeric gel-filtration fraction) (natural protein)”: the critical concentration (CC) for polymerization in test [4] was 3.8 µM; in test [5], 0.41 µM; in test [6], greater than 7 µM.
